The test system of assay [1] is late components of human complement (C3-C9). Put plainly: Test Code 035 (C3-C9 inhibitor, C-Late): lysis of EAC 142 by late components of human complement. It counts as cell-based. The note with it: two-fold serial dilution assay. The text has this:
(§1) An active inhibitor protects C2 from C1 and C4; (ii) Test Code 035 (C3-C9 inhibitor)--This test determines the ability of the late components of human complement (C3-C9) to lyse EAC 142 in the presence of appropriate dilutions of the test compound. An active inhibitor protects EAC 142 from lysis by human C3-C9; (iii) Test Code 036 (C-Shunt inhibitor)--In this test human erythrocytes rendered fragile are lysed in autologous serum via the shunt pathway activated by cobra venom factor in the presence of appropriate dilutions of the test compound. Inhibition of the shunt pathway results in failure of lysis; (iv) Forssman Vasculitis Test--Here, the well known complement dependent lesion, Forssman vasculitis, is produced in guinea pigs by intradermal injection of rabbit anti-Forssman antiserum. The lesion is measured in terms of diameter, edema and hemorrhage and the extent to which a combined index of these is inhibited by prior intraperitoneal injection of the test compound at 200 mg/kg is then reported, unless otherwise stated; (v) Forssman Shock Test--Lethal shock is produced in guinea pigs by an i.v. injection of anti-Forssman antiserum and the harmonic mean death time of treated guinea pigs is compared with that of simultaneous controls; (vi) Complement Level Reduction Test--In this test, the above dosed guinea pigs, or others, are bled for serum and the complement level is determined in undiluted serum by the capillary tube method of U.S. Pat. No. 3,876,376 and compared to undosed control guinea pigs; and (vii) Cap 50 Test--Here, appropriate amounts of the test compound are added to a pool of guinea pig serum in vitro, after which the undiluted serum capillary tube assay referred to above is run. The concentration of compound inhibiting 50% is reported.
(§2) **Activity in wells a serial dilution assay. Higher well number indicates
(§3) higher activity. The serial dilutions are two-fold.

A further assay concerns the target activated human C1 (Homo sapiens, UniProt P09871). Put plainly: Test Code 026 (C1 inhibitor): ability of activated human C1 to destroy fluid phase human C2 in the presence of C4. The assay is classed as biochemical. The conditions noted are these: two-fold serial dilution assay, higher well number indicates higher activity.
From the text: as §1, §2, §3

Another assay deals with whole complement. Put plainly: Complement Level Reduction Test: whole complement in serum of dosed guinea pigs, capillary tube assay. The assay is classed as in vivo. The conditions noted are these: guinea pig, intraperitoneal, 200 mg/kg.
A further assay has as its system shunt pathway. Nature of the assay: Test Code 036 (C-Shunt inhibitor): lysis of fragile human erythrocytes in autologous serum via shunt pathway activated by cobra venom factor. The conditions noted are these: Table II (intermediates); two-fold serial dilution assay. The assay is classed as cell-based.
From the text: as §1, §2, §3

A further assay relates to complement system. The conditions noted are these: reported in literature or known; cited from earlier work.
The conditions of assay [2]: reported in literature; cited from earlier work.
For assay [3], the system named is total hemolytic complement activity of human serum. The conditions noted are these: in vitro and in vivo, reported in literature; cited from earlier work.
Setting [4] is: Table I, higher well number indicates higher activity.

Counter-ions that a name gives are not always drawn.

As to `Cc1ccc(C(=O)Nc2ccc(S(=O)(=O)O)c3cc(S(=O)(=O)O)cc(S(=O)(=O)O)c23)cc1NC(=O)c1cc(NC(=O)Nc2cc(C(=O)O)cc(C(=O)Nc3cc(C(=O)Nc4ccc(S(=O)(=O)O)c5cc(S(=O)(=O)O)cc(S(=O)(=O)O)c45)ccc3C)c2)cc(C(=O)O)c1` [5,5"-Ureylenebis[2'-methyl-5"-[(4,6,8-trisulfo-1-naphthyl)carbamoyl]isophthalanilic acid], octasodium salt], the “C-Late 035 (C3-C9 inhibitor)” value in assay [1] (setting [4]) is on record as “+2 Wells”. Also, the “Cl 026 (C1 inhibitor)” value at activated human C1 (Table I) is recorded as “+5 Wells”. The “% Inhibition” value in the assay on whole complement (30 minutes) is recorded as -17%; in the assay on whole complement (60 minutes) it was -50%; with whole complement (120 minutes) it was -57%.

Regarding `Cc1ccc(C(=O)Nc2ccc(S(=O)(=O)[O-])c3cc(S(=O)(=O)[O-])cc(S(=O)(=O)[O-])c23)cc1NC(=O)c1cc(NC(=O)Nc2cc(C(=O)O)cc(C(=O)Nc3cc(C(=O)Nc4ccc(S(=O)(=O)[O-])c5cc(S(=O)(=O)[O-])cc(S(=O)(=O)[O-])c45)ccc3C)c2)cc(C(=O)O)c1.[Na+].[Na+].[Na+].[Na+].[Na+].[Na+]` [5,5"-Ureylenebis[2'-methyl-5'-[(4,6,8-trisulfo-1-naphthyl)carbamoyl]isophthalanilic acid], hexasodium salt], in assay [1] (setting [4]), the “C-Late 035 (C3-C9 inhibitor)” value is reported as “+2 Wells”. Further, at activated human C1 (Table I), the “Cl 026 (C1 inhibitor)” value was “+5 Wells”.

Take `Cc1ccc(C(=O)Nc2cc(C(=O)O)cc(C(=O)Nc3ccc(S(=O)(=O)O)c4cc(S(=O)(=O)O)cc(S(=O)(=O)O)c34)c2)cc1NC(=O)Nc1cc(C(=O)Nc2cc(C(=O)O)cc(C(=O)Nc3ccc(S(=O)(=O)O)c4cc(S(=O)(=O)O)cc(S(=O)(=O)O)c34)c2)ccc1C` [5,5'-Ureylenebis[(4-methyl-3,1-phenylenecarbonyl)imino]bis[N-(4,6,8-trisulfo-1-naphthyl)isophthalamic acid], hexasodium slt]: in assay [1] (setting [4]), the “C-Late 035 (C3-C9 inhibitor)” value is given as “+2 Wells”. Moreover, the “Cl 026 (C1 inhibitor)” value on activated human C1 (Table I) is reported as “+5 Wells”.

On to `Cc1ccc(C(=O)Nc2cc(C(=O)O)cc(C(=O)Nc3ccc(S(=O)(=O)O)c4cc(S(=O)(=O)O)cc(S(=O)(=O)O)c34)c2)cc1N` [5-(3-Amino-p-toluamido)-N-(4,6,8-trisulfo-1-naphthyl)isophthalamic acid, trisodium salt], for which, in assay [1] (Table II (intermediates)), the “C-Late 035 (C3-C9 inhibitor)” value was “N”. Moreover, the “Cl 026 (C1 inhibitor)” value on activated human C1 (Table II (intermediates)) was “+3 Wells”. For the same molecule, in the assay with shunt pathway, the “Shunt Inhibition 036” value was “N”.

Turning to `Cc1ccc(S(=O)(=O)Nc2ccc(S(=O)(=O)[O-])c3cc(S(=O)(=O)[O-])cc(S(=O)(=O)[O-])c23)cc1NC(=O)c1cc(N)cc(C(=O)O)c1.[Na+].[Na+].[Na+]` [5-Amino-2'-methyl-5'-(4,6,8-trisulfo-1-naphthylsulfamoyl)-isophthalanilic acid, trisodium salt], in assay [1] (Table II (intermediates)), the “C-Late 035 (C3-C9 inhibitor)” value is “N”. Besides, the “Cl 026 (C1 inhibitor)” value at activated human C1 (Table II (intermediates)) is recorded as “+2 Wells”. Moreover, the “Shunt Inhibition 036” value with shunt pathway is given as “N”.

`Cc1ccc(C(=O)Nc2ccc(S(=O)(=O)O)c3cc(S(=O)(=O)O)cc(S(=O)(=O)O)c23)cc1NC(=O)c1cc(N)cc(C(=O)O)c1` [5-Amino-2'-methyl-5'-[(4,6,8-trisulto-1-naphthyl)carbamoyl]isophthalanilic acid, trisodium salt]: the “C-Late 035 (C3-C9 inhibitor)” value in assay [1] (Table II (intermediates)) is given as “N”. Also, at activated human C1 (Table II (intermediates)), the “Cl 026 (C1 inhibitor)” value is given as “+2 Wells”. Moreover, in the assay with shunt pathway, the “Shunt Inhibition 036” value was “N”.

As to `Cc1cc(C)c(S(=O)(=O)Nc2cc(S(=O)(=O)[O-])cc3cc(S(=O)(=O)[O-])cc(S(=O)(=O)[O-])c23)cc1NC(=O)c1ccc(NC(=O)Nc2ccc(C(=O)Nc3cc(S(=O)(=O)Nc4cc(S(=O)(=O)[O-])cc5cc(S(=O)(=O)[O-])cc(S(=O)(=O)[O-])c45)c(C)cc3C)c(S(=O)(=O)[O-])c2)cc1S(=O)(=O)[O-].[Na+].[Na+].[Na+].[Na+].[Na+].[Na+].[Na+].[Na+]` [8,8'-[Ureylenebis[(2-sulfo-4,1-phenylenecarbonyl)imino(4,6-dimethyl-3,1-phenylenesulfonyl)imino]]di-1,3,6-naphthalenetrisulfonic acid, octasodium salt], the “C-Late 035 (C3-C9 inhibitor)” value in assay [1] (setting [4]) is reported as “+2 Wells”. Besides, the “Cl 026 (C1 inhibitor)” value at activated human C1 (Table I) was “+5 Wells”.

Turning to `Cc1ccc(NC(=O)c2ccc(NC(=O)Nc3ccc(C(=O)Nc4ccc(C)c(S(=O)(=O)Nc5cc(S(=O)(=O)O)cc6cc(S(=O)(=O)O)cc(S(=O)(=O)O)c56)c4)c(S(=O)(=O)O)c3)cc2S(=O)(=O)O)cc1S(=O)(=O)Nc1cc(S(=O)(=O)O)cc2cc(S(=O)(=O)O)cc(S(=O)(=O)O)c12` [8,8'-[Ureylenebis[[(2-sulfo-4,1-phenylenecarbonyl)imino](2-methyl-4,1-phenylene)sulfonyl]imino]]di-1,3,6-naphthalenetrisulfonic acid, octasodium salt], in assay [1] (setting [4]), the “C-Late 035 (C3-C9 inhibitor)” value is “+2 Wells”. Also, the “Cl 026 (C1 inhibitor)” value at activated human C1 (Table I) is “+4 Wells”.

For `Cc1ccc(C(=O)Nc2ccc(S(=O)(=O)[O-])c3cc(S(=O)(=O)[O-])cc(S(=O)(=O)[O-])c23)cc1NC(=O)c1ccc(NC(=O)Nc2ccc(C(=O)Nc3cc(C(=O)Nc4ccc(S(=O)(=O)[O-])c5cc(S(=O)(=O)[O-])cc(S(=O)(=O)[O-])c45)ccc3C)c(S(=O)(=O)[O-])c2)cc1S(=O)(=O)[O-].[Na+].[Na+].[Na+].[Na+].[Na+].[Na+].[Na+].[Na+]` [8,8'-[Ureylenebis[[(2-sulfo-4,1-phenylenecarbonyl)imino]-(4-methyl-3,1-phenylenecarbonyl)imino]]di-1,3,5-naphthalenetrisulfonic acid, octasodium salt], the “C-Late 035 (C3-C9 inhibitor)” value in assay [1] (setting [4]) is given as “+1 Wells”. In addition, on activated human C1 (Table I), the “Cl 026 (C1 inhibitor)” value was “+3 Wells”.

Turning to `Cc1ccc(C(=O)Nc2ccc(S(=O)(=O)O)c3cc(S(=O)(=O)O)cc(S(=O)(=O)O)c23)cc1NC(=O)c1ccc(N)cc1S(=O)(=O)O` [8-[3-(4-Amino-2-sulfobenzamido)-p-toluamido]-1,3,5-naphthalenetrisulfonic acid, tetrasodium salt], the “C-Late 035 (C3-C9 inhibitor)” value in assay [1] (Table II (intermediates)) is on record as “N”. The “Cl 026 (C1 inhibitor)” value at activated human C1 (Table II (intermediates)) is given as “+2 Wells”. In addition, in the assay with shunt pathway, the “Shunt Inhibition 036” value is “N”.

As to `Cc1ccc(NC(=O)c2ccc(N)cc2S(=O)(=O)O)cc1S(=O)(=O)Nc1cc(S(=O)(=O)O)cc2cc(S(=O)(=O)O)cc(S(=O)(=O)O)c12` [8-[5-(4-Amino-2-sulfobenzamido)-o-toluenesulfonamido]-1,3,6-naphthalenetrisulfonic acid, tetrasodium salt], the “C-Late 035 (C3-C9 inhibitor)” value in assay [1] (Table II (intermediates)) is “N”. In addition, at activated human C1 (Table II (intermediates)), the “Cl 026 (C1 inhibitor)” value was “+4 Wells”. For the same molecule, the “Shunt Inhibition 036” value with shunt pathway is reported as “N”.

Turning to `Nc1ccc(C(=O)Nc2cccc(S(=O)(=O)Nc3cc(S(=O)(=O)O)cc4cc(S(=O)(=O)O)cc(S(=O)(=O)O)c34)c2)c(S(=O)(=O)O)c1` [8-[N^3-(4-Amino-2-sulfobenzoyl)metanilamido]-1,3,6-naphthalenetrisulfonic acid, tetrasodium salt], in assay [1] (Table II (intermediates)), the “C-Late 035 (C3-C9 inhibitor)” value was “N”. Further, the “Cl 026 (C1 inhibitor)” value at activated human C1 (Table II (intermediates)) is “+3 Wells”. For the same molecule, the “Shunt Inhibition 036” value with shunt pathway is “N”.

Regarding `Cc1ccc(C(=O)Nc2ccc(S(=O)(=O)O)c3cc(S(=O)(=O)O)cc(S(=O)(=O)O)c23)cc1NC(=O)c1cccc(NC(=O)Nc2cccc(C(=O)Nc3cc(C(=O)Nc4ccc(S(=O)(=O)O)c5cc(S(=O)(=O)O)cc(S(=O)(=O)O)c45)ccc3C)c2)c1` [Suramin, reference compound], in assay [1] (setting [4]), the “C-Late 035 (C3-C9 inhibitor)” value is recorded as “+2 Wells”. Also, in the assay with complement system, the “complement inhibitor / anticomplementary effect” value is “moderately active as a complement inhibitor”. Moreover, the “Cl 026 (C1 inhibitor)” value on activated human C1 (Table I) is listed as “+4 Wells”.

Take `Nc1ccc2cc(S(=O)(=O)[O-])cc(O)c2c1N=Nc1ccc(NC(=O)Nc2ccc(N=Nc3c(N)ccc4cc(S(=O)(=O)[O-])cc(O)c34)c(S(=O)(=O)[O-])c2)cc1S(=O)(=O)[O-].[Na+].[Na+].[Na+].[Na+]` [chlorazol fast pink, 3,3'-ureylenebis[6-(2-amino-8-hydroxy-6-sulfo-1-naphthylazo)benzenesulfonic acid], tetrasodium salt]: in the assay with complement system, the “complement inhibitor / anticomplementary effect” value is given as “anticomplementary effect”.

Take `NCCCCCC(=O)O` [epsilon-aminocaproic acid]: the “use in treatment of hereditary angioneurotic edema” value in assay [2] is “used with success in the treatment of hereditary angioneurotic edema”.

As for `NC[C@H]1CC[C@H](C(=O)O)CC1` [tranexamic acid], the “use in treatment of hereditary angioneurotic edema” value in assay [2] is listed as “used with success in the treatment of hereditary angioneurotic edema”.

As to heparin, the “complement inhibitor / anticomplementary effect” value in the assay with complement system is “anticomplementary effect”.

Regarding pentosan-polysulfoester, in assay [3], the “anticomplementary activity of human serum (reduction in total hemolytic complement activity)” value is reported as “anticomplementary activity of human serum”.

As a reminder, the % Inhibition is the relative decrease from the control value, in per cent.

These data come from patent US4155931A, “Ureylene phenylene anionic naphthalenesulfonic acids” (American Cyanamid Company, priority 1978, dated 1979).
